Literature values, collected in patent publication US20190290552A1, “ETHANOLIC COMPOSITIONS COMPRISING PERFUME” (Conopco, Inc., d/b/a UNILEVER, priority 2016, published 2019).

Settings: taken from the Good Scents website

SMILES | LogKow
C=CC(C)(O)CCC=C(C)CC (centres unmarked) [3,7-Dimethyl-1,6-nonadien-3-ol] | 3.7
C=C(C)[C@H]1CC=C(C)CC1 [Limonene] | 3.4
CCCCCC1C(=O)CCC1CC(=O)OC (centres unmarked) [Methyl dihydrojasmonate] | 2.7
O=C1CCCCCCCCCCCCO1 [Oxacyclotetradecan-2-one] | 4.7
CC1=CC[C@]2(C)CCCC(C)(C)[C@@]23C[C@@H]13 [Thujopsene] | 4.8

Second part, the compound after the results:

LogKow | SMILES
3.6 | CC(C=O)Cc1ccc(C(C)(C)C)cc1 (centres unmarked) [Lilial]
2.7 | C=CC(C)(O)CCC=C(C)C (centres unmarked) [Linalool]
4.1 | C=CC(C)(CCC=C(C)C)OC(=O)CCC (centres unmarked) [Linalyl Butyrate]
